Reference: patent publication US8536201B2, “Pesticidal arylpyrrolidines” (Bayer Intellectual Property GmbH, priority 2009, dated 2013)

Key:
Type in all cases: in vivo
Spodoptera litura [1] = experiment: Tobacco cutworm (Spodoptera litura) larvae using artificial diet; conditions: 20 ppm, 3rd-instar larvae
Procedure: BIOLOGICAL TEST EXAMPLE 1.2
Tobacco Cutworm (Spodoptera litura) Larvae Using Artificial Diet
2.3 g of artificial diet powder is put into a PET cup (7.5 cm diameter, 4 cm depth). The powder was leveled to make a layer in the bottom of the cup. 5 ml of a chemical solution is poured onto the powder and spread uniformly. The cup with treated diet powder is placed quiet to let the diet jell. Into each testing cup five 3rd-instar larvae were released. The testing cup is closed with the lid and placed in a temperature-controlled room at 25° C. and 50-60% R.H., 16L8D lighting conditions.
The mortality in % was determined according to the following criteria:
1 larva dead: 20% Efficacy
5 larvae dead: 100% Efficacy

Aulacophora femoralis = experiment: Cucurbit leaf beetle (Aulacophora femoralis) cucumber leaf dip test; conditions: second instar larvae, treated cucumber leaves, after 7 days
Procedure: BIOLOGICAL TEST EXAMPLE 3
Cucurbit Leaf Beetle (Aulacophora femoralis)
Leaves of cucumber were immersed in the test solution at the appropriate concentration, and the leaves were dried in air. The leaves were then put in a plastic cup containing sterilized black soil and five Aulacophora femoralis at second instar larvae were released in the cup. The cups were placed in a temperature-controlled chamber at 25° C. After 7 days, the number of dead larvae was counted, and thus the insecticidal activity was calculated. An insecticidal activity of 100% means that all larvae were killed, whereas an insecticidal activity of 0% means that no larva was killed.

Spodoptera litura [2] = experiment: Tobacco cutworm (Spodoptera litura) larvae, sweet potato leaf dip test; conditions: 20 ppm; third instar larvae, treated sweet potato leaves, after 7 days
Procedure: Unless not mentioned otherwise, the test solutions were prepared as follows:
Solvent: dimethyl formamide, 3 parts by weight
Emulsifier: polyoxyethylene alkyl phenyl ether, 1 part by weight
To prepare the test solution, 1 part by weight of an active compound is mixed with the above-mentioned amount of solvent containing the above-mentioned amount of emulsifier, and the mixture is diluted with water to the desired concentration.
BIOLOGICAL TEST EXAMPLE 1.1
Tobacco Cutworm (Spodoptera litura) Larvae
Leaves of sweet potato were immersed in the test solution at the appropriate concentration, and the leaves were dried in air. The leaves were then placed in a petri dish having a diameter of 9 cm, and ten Spodoptera litura at third instar larvae were released therein. The petri dishes were placed in a temperature-controlled chamber at 25° C. After 2 days and 4 days more sweet potato leaves were added. After 7 days, the number of dead larvae was counted to calculate the insecticidal activity. An insecticidal activity of 100% means that all larvae were killed, whereas an insecticidal activity of 0% means that no larva was killed. In the current test, the results of two petri dishes for each treatment were averaged.

Tetranychus urticae = experiment: Two-spotted spider mite Tetranychus urticae spray test on kidney bean; conditions: adult mites, after 7 days
Procedure: BIOLOGICAL TEST EXAMPLE 2
Two-Spotted Spider Mite Tetranychus urticae
50 to 100 adult mites of Tetranychus urticae were inoculated to leaves of kidney bean at two-leaf stage planted in a pot of 6 cm in diameter. After one day, test solution at the appropriate concentration was sprayed thereon in a sufficient amount using a spray gun. After the spraying, the plant pot was placed inside a greenhouse, and after 7 days, the acaricidal activity was calculated. An acaricidal activity of 100% means that all mites were killed, an acaricidal activity of 0% means that no mite was killed.

Ctenocephalides felis = Ctenocephalides felis test (CTECFE), blood feeding; conditions: 100 ppm in cattle blood; adult unfed fleas, after 2 days
Procedure: BIOLOGICAL TEST EXAMPLE 7
Ctenocephalides felis—Test (CTECFE)
Solvent: Dimethyl Sulfoxide
To produce a suitable preparation of active compound, 10 mg of active compound are dissolved in 0.5 ml solvent, and the concentrate is diluted with cattle blood to the desired concentration. Approximately 20 adult unfed (Ctenocephalides felis) are placed in flea chambers. The blood chamber, sealed with parafilm on the bottom, are filled with cattle blood supplied with compound solution and placed on top of the flea chamber, so that the fleas are able to suck the blood. The blood chamber is heated to 37° C. whereas the flea chamber is kept at room temperature.
After 2 days mortality in % is determined. 100% means that all the fleas have been killed; 0% means that none of the fleas have been killed.

| SMILES | insecticidal activity (Spodoptera litura [1]) [%] | insecticidal activity (Aulacophora femoralis; 100 ppm) [%] | insecticidal activity (Spodoptera litura [2]) [%] | insecticidal activity (Tetranychus urticae; 100 ppm) [%] | insecticidal activity (Aulacophora femoralis; 20 ppm) [%] | activity (mortality in %) (Ctenocephalides felis) [%] | insecticidal activity (Tetranychus urticae; 20 ppm) [%] |
| --- | --- | --- | --- | --- | --- | --- | --- |
| CC(=O)NC(C)c1ccc(N2CCC(c3cc(Cl)cc(Cl)c3)(C(F)(F)F)C2)cc1 (racemic) [Compound 1] | 100 | 100 | 100 |  |  |  |  |
| CCC(=O)NC(C)c1ccc(N2CCC(c3cc(Cl)cc(Cl)c3)(C(F)(F)F)C2)cc1 (racemic) [Compound 2] | 100 |  | 100 | 100 | 100 | 95 |  |
| CCC(=O)NC(C)c1ccc(N2CCC(c3cc(Cl)cc(C(F)(F)F)c3)(C(F)(F)F)C2)cc1 (racemic) [Compound 4] | 100 |  | 100 |  | 100 |  | 100 |
| CC(NC(=O)C1CC1)c1ccc(N2CCC(c3cc(Cl)cc(C(F)(F)F)c3)(C(F)(F)F)C2)cc1 (racemic) [Compound 5] | 100 |  | 100 |  | 100 |  | 100 |
| CC(=O)NC(C)c1ccc(N2CCC(c3cc(Cl)c(Cl)c(Cl)c3)(C(F)(F)F)C2)cc1 (racemic) [Compound 6] | 100 |  | 100 |  |  |  | 100 |
| CCC(=O)NC(C)c1ccc(N2CCC(c3cc(Cl)c(Cl)c(Cl)c3)(C(F)(F)F)C2)cc1 (racemic) [Compound 7] | 100 | 100 | 100 |  |  |  | 100 |
| CC(=O)NC(C)c1ccc(N2CCC(c3cc(C(F)(F)F)cc(C(F)(F)F)c3)(C(F)(F)F)C2)cc1 (racemic) [Compound 9] | 100 |  | 100 |  |  |  |  |
| CC(NC(=O)C1CC1)c1ccc(N2CCC(c3cc(C(F)(F)F)cc(C(F)(F)F)c3)(C(F)(F)F)C2)cc1 (racemic) [Compound 11] | 100 |  | 100 |  | 100 |  | 100 |
| CC(NC(=O)CC1CC1)c1ccc(N2CCC(c3cc(Cl)c(Cl)c(Cl)c3)(C(F)(F)F)C2)cc1 (racemic) [Compound 12] | 100 |  |  |  |  | 95 | 100 |
| CC(NC(=O)CC1CC1)c1ccc(N2CCC(c3cc(C(F)(F)F)cc(C(F)(F)F)c3)(C(F)(F)F)C2)cc1 (racemic) [Compound 13] | 100 |  |  |  |  |  | 100 |
| COCCC(=O)NC(C)c1ccc(N2CCC(c3cc(Cl)c(Cl)c(Cl)c3)(C(F)(F)F)C2)cc1 (racemic) [Compound 14] | 100 | 100 |  |  |  | 90 | 100 |
| CC(=O)N[C@@H](C)c1ccc(N2CCC(c3cc(Cl)cc(Cl)c3)(C(F)(F)F)C2)cc1 (stereo partly shown) [Compound 1-b] | 100 |  | 100 | 100 | 100 |  |  |
| CCC(=O)N[C@@H](C)c1ccc(N2CCC(c3cc(Cl)cc(Cl)c3)(C(F)(F)F)C2)cc1 (stereo partly shown) [Compound 2-b] | 100 |  | 100 |  | 100 |  |  |
| CC(=O)NC(C)c1ccc(N2CCC(c3cc(Cl)cc(Cl)c3)(C(F)(F)F)C2)cc1Cl (stereo not shown) [Compound 3-66, reference compound] |  |  | 20 |  | 50 |  |  |
| C[C@H](NC(=O)C1CC1)c1ccc(N2CCC(c3cc(Cl)cc(Cl)c3)(C(F)(F)F)C2)cc1 (stereo partly shown) [Compound 3-b] | 100 |  | 100 |  | 100 |  | 100 |
| CCC(=O)N[C@@H](C)c1ccc(N2CCC(c3cc(Cl)cc(C(F)(F)F)c3)(C(F)(F)F)C2)cc1 (stereo partly shown) [Compound 4-b] | 100 |  | 100 |  | 100 |  | 100 |
| C[C@H](NC(=O)C1CC1)c1ccc(N2CCC(c3cc(Cl)cc(C(F)(F)F)c3)(C(F)(F)F)C2)cc1 (stereo partly shown) [Compound 5-b] | 100 |  | 100 |  | 100 |  | 100 |
| CC(=O)N[C@@H](C)c1ccc(N2CCC(c3cc(Cl)c(Cl)c(Cl)c3)(C(F)(F)F)C2)cc1 (stereo partly shown) [Compound 6-b] | 100 |  | 100 |  |  |  | 100 |
| CCC(=O)N[C@H](C)c1ccc(N2CCC(c3cc(Cl)c(Cl)c(Cl)c3)(C(F)(F)F)C2)cc1 (stereo partly shown) [Compound 7-a] |  | 100 |  |  |  | 80 |  |
| CCC(=O)N[C@@H](C)c1ccc(N2CCC(c3cc(Cl)c(Cl)c(Cl)c3)(C(F)(F)F)C2)cc1 (stereo partly shown) [Compound 7-b] | 100 |  | 100 |  | 100 |  | 100 |
| C[C@H](NC(=O)C1CC1)c1ccc(N2CCC(c3cc(Cl)c(Cl)c(Cl)c3)(C(F)(F)F)C2)cc1 (stereo partly shown) [Compound 8-b] | 100 |  | 100 |  | 100 | 95 | 100 |
| CCC(=O)N[C@H](C)c1ccc(N2CCC(c3cc(C(F)(F)F)cc(C(F)(F)F)c3)(C(F)(F)F)C2)cc1 (stereo partly shown) [Compound 10-a] |  |  |  |  | 100 | 90 |  |
| CCC(=O)N[C@@H](C)c1ccc(N2CCC(c3cc(C(F)(F)F)cc(C(F)(F)F)c3)(C(F)(F)F)C2)cc1 (stereo partly shown) [Compound 10-b] | 100 |  | 100 |  | 100 |  | 100 |
| C[C@H](NC(=O)CC1CC1)c1ccc(N2CCC(c3cc(Cl)c(Cl)c(Cl)c3)(C(F)(F)F)C2)cc1 (stereo partly shown) [Compound 12-b] | 100 | 100 |  |  |  |  | 100 |
| C[C@H](NC(=O)CC1CC1)c1ccc(N2CCC(c3cc(C(F)(F)F)cc(C(F)(F)F)c3)(C(F)(F)F)C2)cc1 (stereo partly shown) [Compound 13-b] | 100 | 100 |  |  |  |  | 100 |
| COCCC(=O)N[C@@H](C)c1ccc(N2CCC(c3cc(Cl)c(Cl)c(Cl)c3)(C(F)(F)F)C2)cc1 (stereo partly shown) [Compound 14-b] | 100 | 100 |  |  |  |  | 100 |
| C[C@H](NC(=O)c1c(F)cc(F)cc1F)c1ccc(N2CCC(c3cc(C(F)(F)F)cc(C(F)(F)F)c3)(C(F)(F)F)C2)cc1 (stereo partly shown) [Compound 16-b] | 100 |  |  |  | 100 |  | 100 |
| C[C@H](NC(=O)C1CC1)c1ccc(N2CCC(c3cc(C(F)(F)F)nc(C(F)(F)F)c3)(C(F)(F)F)C2)cc1 (stereo partly drawn) [Compound 17-b, N-[(1S)-1-(4-{3-[2,6-bis(trifluoromethyl)pyridin-4-yl]-3-(trifluoromethyl)pyrrolidin-1-yl}phenyl)ethyl]cyclopropanecarboxamide] | 100 |  |  |  | 100 |  | 100 |
